Experimental data taken from PubChem BioAssay AID588821 (The Scripps Research Institute Molecular Screening Center, 2011).
Calls of active or inactive are those of the source.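 Rule for the calls: active = IC50 at or below 10 µM; inactive = IC50 above 10 µM.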

Test system: HEK293T GAL4DBD-only luciferase reporter, luminescence counterscreen
Test: Gal4 DBD-only luciferase reporter interference, late-stage follow-up, counter-screen for DAX1 inhibitor project, cell-based, luminescence, HEK293T, empty GAL4DBD, dose response (AID 588821)

| SMILES | IC50 |
| --- | --- |
| COc1ccc(OC)c(C(C)NC(=O)c2ccc(C(C)(C)C)cc2)c1 (centres undefined) | > 69.5 µM (inactive) |
| COc1ccc(OC)c(C(C)NC(=O)c2ccc3c(c2)OCCO3)c1 (centres undefined) | > 69.5 µM (inactive) |
| CSc1ccccc1C(=O)Nc1ccc2c(c1)OCCO2 | > 69.5 µM (inactive) |
| O=C(Cc1cccs1)Nc1ccc2c(c1)OCO2 | > 69.5 µM (inactive) |
| O=C(Nc1ccc2c(c1)OCO2)c1cccs1 | > 69.5 µM (inactive) |
| COc1ccc(OC)c(C(C)NC(=O)c2cccc(F)c2)c1 (centres undefined) | > 69.5 µM (inactive) |
| COc1ccc(OC)c(C(C)NC(=O)c2cccc(C)c2)c1 (centres undefined) | > 69.5 µM (inactive) |
| Cn1c(=O)n(C)c2cc(C(=O)Nc3ccc4c(c3)OCO4)ccc21 | > 69.5 µM (inactive) |
| COc1ccc(OC)c(C(C)NC(=O)c2ccccc2)c1 (centres undefined) | > 69.5 µM (inactive) |
| O=C(Nc1ccc2c(c1)OCO2)c1ccc2ccccc2c1 | 0.202 µM |
| COc1ccc(OC)c(C(C)NC(=O)c2ccccc2C)c1 (centres undefined) | > 69.5 µM (inactive) |
| COc1ccc(OC)c(C(C)NC(=O)c2ccc(Cl)cc2)c1 (centres undefined) | > 69.5 µM (inactive) |
| COc1ccc(OC)c(C(C)NC(=O)c2c(F)cccc2Cl)c1 (centres undefined) | > 69.5 µM (inactive) |
| O=C(Nc1ccc2c(c1)OCO2)c1ccc(C2SCC(=O)N2Cc2ccco2)cc1 (centres undefined) | > 69.5 µM (inactive) |
| COc1ccc(OC)c(C(C)NC(=O)c2cccc3ccccc23)c1 (centres undefined) | > 69.5 µM (inactive) |
| Cc1occc1C(=O)Nc1ccc2c(c1)OCO2 | > 69.5 µM (inactive) |
| Cn1c(=O)n(C)c2cc(C(=O)Nc3ccc4c(c3)OCCO4)ccc21 | > 69.5 µM (inactive) |
| COc1ccc(OC)c(C(C)NC(=O)c2ccccc2F)c1 (centres undefined) | > 69.5 µM (inactive) |
| COc1cccc(C(=O)NC(C)c2cc(OC)ccc2OC)c1 (centres undefined) | > 69.5 µM (inactive) |
| CSc1ccccc1C(=O)Nc1ccc2c(c1)OCO2 | > 69.5 µM (inactive) |
| O=C(Nc1ccc2c(c1)OCO2)c1ccc(C2SCC(=O)N2Cc2ccccc2)cc1 (centres undefined) | > 69.5 µM (inactive) |
| COc1ccc(OC)c(C(C)NC(=O)c2ccc(C)cc2)c1 (centres undefined) | > 69.5 µM (inactive) |
| COc1ccc(OC)c(C(C)NC(=O)c2ccccc2Cl)c1 (centres undefined) | > 69.5 µM (inactive) |
| COc1ccc(OC)c(C(C)NC(=O)c2ccc(F)cc2)c1 (centres undefined) | > 69.5 µM (inactive) |
